Measurements: US20230190947A1, “Hemoglobin-Targeted Drug Delivery For The Treatment of Cancer” (Therapure Biopharma Inc., priority 2016, published 2023)

Experiments:
[1] = set-up: species or system mice; settings: mouse, in vivo
Protocol: (§1) Study design: Fifty (50) tumor-bearing mice were randomly divided into five groups with ten (10) mice per group. Animals (10 mice per group) were treated with Hb-FUdR at 6, 32, and 161 mg Hb/kg (0.15, 0.74, and 3.7 mg FUdR/kg) twice weekly via intravenous injection (tail vein) at 5 mL/kg. Control untreated animals were treated with PBS at 5 mL/kg. Control FUdR treated animals were treated with 3.7 mg FUdR/kg. Study endpoint: The study was terminated 47 days post tumor inoculation. All remaining mice in each group were sacrificed at this time point. All animals in the PBS treated group and approximately 50% of animals in other treated groups died before the study endpoint. Therefore, survival time between groups was considered one of the criteria to assess the efficacy of the test agents. Primary tumors were excised and weighted at necropsy for subsequent analysis.
[…]. […] Other symptoms of related toxicity were absent by gross observation.

[2] = test system: human colon cancer; experiment: Human colon cancer model: mice orthotopically implanted with GFP-transfected colon cancer tumor fragments; type: in vivo
Protocol: A study testing Hb-FUdR in mice orthotopically implanted with tumor fragments derived from colon cancer cells (transfected with green fluorescence protein for in-life tumor visualization was conducted as follows:
as §1
The anti-tumor efficacy of Hb-FUdR against the implanted human colon cancer was evaluated by comparing the primary tumor sizes measured twenty-one days after treatment initiation, and the differences in survival time between the Hb-FUdR treated and PBS control groups.

[3] = test system: HCC; settings: SHARP trial; vs. 7.9 months; cited from earlier work
[4] = Hb 0 mg/kg, FUdR 3.7 mg/kg (free drug), 9 mice evaluated

O=c1[nH]c(=O)n([C@H]2C[C@H](O)[C@@H](CO)O2)cc1F [FUdR, floxuridine]
Toxicity [1]: without obvious toxicity | No. of mice with L.N. met. [2, 4]: 6 | No. of mice with liver met. [2, 4]: 4 | Mean survival time ([2]; Hb 0 mg/kg, FUdR 3.7 mg/kg (free drug), study terminated 47 days post tumor inoculation): 43.9 days | Average tumor volume ([2]; Hb 0 mg/kg, FUdR 3.7 mg/kg (free drug), twenty-one days after treatment initiation): 254.58 ± 196.74 mm^3 | Survival time of the treated mice ([2]; summary statement): significantly prolonged survival time

CNC(=O)c1cc(Oc2ccc(NC(=O)Nc3ccc(Cl)c(C(F)(F)F)c3)cc2)ccn1 [Sorafenib]
Overall survival [3]: 10.7 months
